Consider 26 molecules from publication PMC8119466, “A screen of FDA-approved drugs identifies inhibitors of protein tyrosine phosphatase 4A3 (PTP4A3 or PRL-3)” (Scientific Reports, 2021).

Structures can show the parent of a compound that is named as a salt. Where two headings read alike, the source gives them in different places.

Type in all cases: biochemical
One test deals with T1, recombinant PRL-3 (Homo sapiens, UniProt O75365).
T1 construct: 6xHis (N, cleaved yes); made in house; host or cells: E. coli One Shot BL21 Star
The test can be described thus: In vitro phosphatase assay (DiFMUP hydrolysis), PRL-3. Note: test concentration or dose not given here.

For the next test, the target named is T2, recombinant PRL-2 (Homo sapiens, UniProt Q12974).
T2 construct: 6xHis (N, cleaved yes); made in house; host or cells: E. coli One Shot BL21 Star
T2 sequence (Q12974 1-167): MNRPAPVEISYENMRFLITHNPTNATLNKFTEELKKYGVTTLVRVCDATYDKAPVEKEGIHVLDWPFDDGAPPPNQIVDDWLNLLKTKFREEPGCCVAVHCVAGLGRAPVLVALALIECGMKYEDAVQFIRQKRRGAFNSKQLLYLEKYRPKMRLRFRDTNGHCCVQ
The test can be described thus: In vitro phosphatase assay (DiFMUP hydrolysis), PRL-2.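 Note: PRL-2 activity read as DiFMUP hydrolysis after 20 min at room temperature with drug, enzyme first pre-reduced at 4 °C for 20 min.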

The next test deals with T3, recombinant PRL-1 (Homo sapiens, UniProt Q93096).
T3 construct: 6xHis (N, cleaved yes); made in house; host or cells: E. coli One Shot BL21 Star
T3 sequence (Q93096 1-173): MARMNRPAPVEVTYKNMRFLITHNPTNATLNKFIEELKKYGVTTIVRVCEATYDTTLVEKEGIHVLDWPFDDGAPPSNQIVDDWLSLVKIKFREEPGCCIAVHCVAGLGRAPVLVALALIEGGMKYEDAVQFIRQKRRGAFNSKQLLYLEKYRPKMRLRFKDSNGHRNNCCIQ
The test can be described thus: In vitro phosphatase assay (DiFMUP hydrolysis), PRL-1. Note: test concentration or dose not given here.

Setting [1] is: FDA-approved drug screen, compared to DMSO.

T1 sequence (O75365 whole entry): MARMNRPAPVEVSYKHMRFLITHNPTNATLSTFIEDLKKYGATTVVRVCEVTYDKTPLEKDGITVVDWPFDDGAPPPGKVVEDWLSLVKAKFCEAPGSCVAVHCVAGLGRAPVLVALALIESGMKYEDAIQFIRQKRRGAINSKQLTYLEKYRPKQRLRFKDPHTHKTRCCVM
Description for recombinant PRL-1: Briefly, protein was diluted in reaction buffer and allowed to incubate at 4 °C for 20 min to allow for full reduction of the active site. DiFMUP, drug, and protein were added, and plates were incubated for 20 min at room temperature. Fluorescence intensities were measured on a Cytation 5 plate reader (Biotek) at an EX:360 nm and EM:460 nm. […] Inhibition selectivity for PRLs over a panel of other phosphatases was determined using PhosphataseProfiler (Eurofins, Cat # PP260).

Regarding `Oc1c(Cl)cc(Cl)c2cccnc12` [Chloroxine], on recombinant PRL-3 (setting [1]), the “% Phosphatase Activity (compared to DMSO) PRL-3” value is reported as 86%. For the same molecule, the “% Phosphatase Activity (compared to DMSO) PRL-2” value at recombinant PRL-2 (setting [1]) is 111%. The “% Phosphatase Activity (compared to DMSO) PRL-1” value on recombinant PRL-1 (setting [1]) is given as 90%.
As for `Cc1cc(O)cc(C)c1Cl` [Chloroxylenol], the “% Phosphatase Activity (compared to DMSO) PRL-3” value at recombinant PRL-3 (setting [1]) turned out to be 92%. Further, at recombinant PRL-2 (setting [1]), the “% Phosphatase Activity (compared to DMSO) PRL-2” value was determined as 112%. In addition, the “% Phosphatase Activity (compared to DMSO) PRL-1” value on recombinant PRL-1 (setting [1]) is reported as 93%.
Taken in the same sequence, the figures for `CCCNC(=O)NS(=O)(=O)c1ccc(Cl)cc1` [Chlorpropamide] were 80%, 105% and 98%.
For `CN(C)CC/C=C1/c2ccccc2Sc2ccc(Cl)cc21` [Chlorprothixene] the same measures were 93%, 107% and 98%.
In the case of `Cc1ccc2c(Cl)cc(Cl)c(O)c2n1` [Chlorquinaldol], the “% Phosphatase Activity (compared to DMSO) PRL-3” value on recombinant PRL-3 (setting [1]) was 71%. Besides, the “% Phosphatase Activity (compared to DMSO) PRL-2” value at recombinant PRL-2 (setting [1]) came to 102%. Also, the “% Phosphatase Activity (compared to DMSO) PRL-1” value on recombinant PRL-1 (setting [1]) turned out to be 88%.
Taken in the same sequence, the figures for `CN(C)[C@@H]1C(O)=C(C(N)=O)C(=O)[C@@]2(O)C(O)=C3C(=O)c4c(O)ccc(Cl)c4[C@@](C)(O)[C@H]3C[C@@H]12` [Chlortetracycline HCl] were 77%, 95% and 106%.
Consider `C[N+](C)(C)CCO.[Cl-]` [Choline Chloride], for which, on recombinant PRL-3, the “% Phosphatase Activity (compared to DMSO) PRL-3” value was found to be 75%. Besides, the “% Phosphatase Activity (compared to DMSO) PRL-2” value on recombinant PRL-2 was found to be 106%. Moreover, on recombinant PRL-1, the “% Phosphatase Activity (compared to DMSO) PRL-1” value came out at 99%.
On to `O=C(O)c1cc(=O)c2ccccc2o1` [Chromocarb], for which the “% Phosphatase Activity (compared to DMSO) PRL-3” value on recombinant PRL-3 (setting [1]) worked out at 85%. The “% Phosphatase Activity (compared to DMSO) PRL-2” value on recombinant PRL-2 (setting [1]) is 102%. At recombinant PRL-1 (setting [1]), the “% Phosphatase Activity (compared to DMSO) PRL-1” value turned out to be 95%.
Taken in the same sequence, the figures for `CC(C)C(=O)OCC(=O)[C@@]12O[C@H](C3CCCCC3)O[C@@H]1C[C@H]1[C@@H]3CCC4=CC(=O)C=C[C@]4(C)[C@H]3[C@@H](O)C[C@@]12C` [Ciclesonide] were 88%, 108% and 100%.
Take `Cc1cc(C2CCCCC2)n(O)c(=O)c1.NCCO` [Ciclopirox ethanolamine]: the “% Phosphatase Activity (compared to DMSO) PRL-3” value on recombinant PRL-3 (setting [1]) is on record as 83%. The “% Phosphatase Activity (compared to DMSO) PRL-2” value on recombinant PRL-2 (setting [1]) turned out to be 109%. In addition, the “% Phosphatase Activity (compared to DMSO) PRL-1” value at recombinant PRL-1 (setting [1]) amounted to 106%.
For `CCOC(=O)[C@H](CCc1ccccc1)N[C@H]1CCCN2CCC[C@@H](C(=O)O)N2C1=O` [Cilazapril Monohydrate] the same measures were 73%, 111% and 91%.
As to `CC(C)[C@H]1C(=O)N[C@@H](CCCN=C(N)N)C(=O)NCC(=O)N[C@@H](CC(=O)O)C(=O)N[C@H](Cc2ccccc2)C(=O)N1C` [Cilengitide], the “% Phosphatase Activity (compared to DMSO) PRL-3” value on recombinant PRL-3 (setting [1]) is 96%. In addition, the “% Phosphatase Activity (compared to DMSO) PRL-2” value on recombinant PRL-2 (setting [1]) came out at 91%. The “% Phosphatase Activity (compared to DMSO) PRL-1” value on recombinant PRL-1 (setting [1]) was 100%.
For `COCCOC(=O)C1=C(C)NC(C)=C(C(=O)OC/C=C/c2ccccc2)C1c1cccc([N+](=O)[O-])c1` (stereo not drawn) [Cilnidipine] the same measures were 68%, 95% and 95%.
For `O=C1CCc2cc(OCCCCc3nnnn3C3CCCCC3)ccc2N1` [Cilostazol] the same measures were 69%, 83% and 88%.
`O=C(O)c1cc(-c2ccccc2)nc2ccccc12` [Cinchophen]: the “% Phosphatase Activity (compared to DMSO) PRL-3” value at recombinant PRL-3 (setting [1]) is given as 79%. On recombinant PRL-2 (setting [1]), the “% Phosphatase Activity (compared to DMSO) PRL-2” value is given as 101%. Also, the “% Phosphatase Activity (compared to DMSO) PRL-1” value at recombinant PRL-1 (setting [1]) was found to be 86%.
In the case of `COc1cc(/C=C/C(=O)N2CCN(CC(=O)N3CCCC3)CC2)cc(OC)c1OC.O=C(O)/C=C\C(=O)O` [Cinepazide maleate], the “% Phosphatase Activity (compared to DMSO) PRL-3” value at recombinant PRL-3 (setting [1]) is given as 113%. In addition, the “% Phosphatase Activity (compared to DMSO) PRL-2” value at recombinant PRL-2 (setting [1]) was found to be 134%. For the same molecule, the “% Phosphatase Activity (compared to DMSO) PRL-1” value on recombinant PRL-1 (setting [1]) turned out to be 112%.
In the case of `CC(C)(Oc1ccc(C2CC2(Cl)Cl)cc1)C(=O)O` (stereo not drawn) [Ciprofibrate], the “% Phosphatase Activity (compared to DMSO) PRL-3” value at recombinant PRL-3 (setting [1]) is 88%. The “% Phosphatase Activity (compared to DMSO) PRL-2” value on recombinant PRL-2 (setting [1]) came to 91%. Further, the “% Phosphatase Activity (compared to DMSO) PRL-1” value at recombinant PRL-1 (setting [1]) is 95%.
Taken in the same sequence, the figures for `COc1ccc(C[C@@H]2c3cc(OC)c(OC)cc3CC[N@+]2(C)CCC(=O)OCCCCCOC(=O)CC[N@@+]2(C)CCc3cc(OC)c(OC)cc3[C@H]2Cc2ccc(OC)c(OC)c2)cc1OC` [Cisatracurium Besylate] were 79%, 103% and 99%.
For `CC(=O)NC1CCSC1=O` (stereo not drawn) [Citiolone] the same measures were 93%, 106% and 114%.
Taken in the same sequence, the figures for `O.O.O.O.O=C([O-])CC(O)(CC(=O)[O-])C(=O)[O-].[Li+].[Li+].[Li+]` [Citric acid trilithium salt tetrahydrate] were 89%, 92% and 93%.
On to `Nc1nc(Cl)nc2c1ncn2[C@H]1C[C@H](O)[C@@H](CO)O1` [Cladribine], for which, on recombinant PRL-3 (setting [1]), the “% Phosphatase Activity (compared to DMSO) PRL-3” value is 82%. The “% Phosphatase Activity (compared to DMSO) PRL-2” value at recombinant PRL-2 (setting [1]) was 93%. In addition, at recombinant PRL-1 (setting [1]), the “% Phosphatase Activity (compared to DMSO) PRL-1” value turned out to be 98%.
Take `CCCC(=O)OCOC(=O)C1=C(C)NC(C)=C(C(=O)OC)C1c1cccc(Cl)c1Cl` (stereo not drawn) [Clevidipine Butyrate]: the “% Phosphatase Activity (compared to DMSO) PRL-3” value on recombinant PRL-3 (setting [1]) was 262%. The “% Phosphatase Activity (compared to DMSO) PRL-2” value on recombinant PRL-2 (setting [1]) came out at 437%. Also, the “% Phosphatase Activity (compared to DMSO) PRL-1” value at recombinant PRL-1 (setting [1]) came to 473%.
Taken in the same sequence, the figures for `Cc1cn([C@H]2O[C@@H](CO)[C@H](O)[C@H]2F)c(=O)[nH]c1=O` [Clevudine] were 89%, 117% and 103%.
For `CC(C)(C)C(=O)C(Oc1ccc(Cl)cc1)n1ccnc1` (stereo not drawn) [Climbazole] the same measures were 73%, 94% and 87%.
For `CCC[C@@H]1C[C@@H](C(=O)N[C@@H]([C@H]2O[C@H](SC)[C@H](OP(=O)(O)O)[C@@H](O)[C@H]2O)[C@H](C)Cl)N(C)C1` [Clindamycin Phosphate] the same measures were 88%, 76% and 93%.
In the case of `CCCCCCCCCCCCCCCC(=O)O[C@@H]1[C@@H](O)[C@@H](O)[C@@H]([C@H](NC(=O)[C@@H]2C[C@@H](CCC)CN2C)[C@H](C)Cl)O[C@@H]1SC.Cl` [Clindamycin palmitate HCl], the “% Phosphatase Activity (compared to DMSO) PRL-3” value on recombinant PRL-3 (setting [1]) stood at 106%. At recombinant PRL-2 (setting [1]), the “% Phosphatase Activity (compared to DMSO) PRL-2” value was found to be 133%. For the same molecule, the “% Phosphatase Activity (compared to DMSO) PRL-1” value at recombinant PRL-1 (setting [1]) was 107%.
